Values joined by “and” are separate entries in the source; they are usually repeats but may differ in a detail not shown here. Identical values can stand only once. “Also recorded” adds a separate entry of the source.
Key:
erythrocytes = experiment: incubation of erythrocytes: ATP and 2-3 DPG content; assay type: cell-based
Source text: (§1) To allow for a broader and more complete interpretation of the results, a small paragraph will be devoted to the ability of FDP to cross the cellular membranes.

[1] = test system: dogs given potassium cyanide; experiment: potassium cyanide poisoning in dogs; assay type: in vivo, dog; conditions: 2 mg/kg IV potassium cyanide; 0.5 gm/kg over 30 minutes
heart preparation = conditions: infusion of Locke's solution plus sugar; cited from earlier work
[2] = test system: dogs subjected to hemorrhagic shock; experiment: irreversible hemorrhagic shock in dogs (modified Wiggers technique, 35 mm Hg for 3 hours); assay type: in vivo, dog; conditions: for survival after retransfusion: retransfused at three hours
Experimental: In the experiments regarding an irreversible hemorrhagic shock, results were obtained in the dog model using Wigger's modified technique. We compared a group of animals receiving IV administration of fructose-1,6-diphosphate (FDP) to a group receiving equimolar glucose.
The experiments were performed in b 25 pentobarbital anesthetized (30 mg/kg IV) mongrel dogs of both sexes. After induction of anesthesia the animals were […] and ventilated with a Harvard respiration pump with the use of ambient air. Secured in the left lateral decubitus position on the fluoroscopic table, a femoral artery was used to introduce a large bore polyethylene catheter which was connected to a 1.5 liter bottle elevated at 35 mm Hg above the atrial level. In the connecting system an external calibrated electromagnetic flow probe (Statham) was incorporated in order to follow the direction and amount of blood flow. The pressure in this system was monitored through a side opening with the aid of a Statham pressure gauge. The other femoral artery was percutaneously catheterized and a Judkins type pigtail catheter was advanced to the aortic root. In the course of the experiments this catheter was placed intermittently into the left ventricle when recordings were made. This set-up enable us to monitor both aortic and left ventricular pressures via a single catheter. The femoral vein on the side where the incision was made was catheterized as well as a superficial vein of the front limb transutaneously for administration of the FDP, glucose, heparin and supplemental anesthetic. Parameters such as aortic, ventricular and femoral pressures, and EKG were monitored on an Electronics for Medicine DR-8 recorder. Recording of these parameters was made every 15 min. Heparin ([…] initially and thereafter 3 mg/kg/2 hrs) and antibiotics were given to all animals that were allowed to recover. A control period of one hour was allowed prior to bleeding the animal. During this period two arterial blood samples were drawn for pH, pO2, pCO2, pCO2 combining power and lactic acid determinations. During the oliegemic phase four arterial samples were taken for determination of the same parameters described at 30 min, 1 hr, 2 hrs, and 2 hrs 45 min.
The blood from the animals was withdrawn via the femoral artery (50-55 ml/min) until the means arterial pressure dropped to 35 mm Hg and from then on the pressure was kept at this level for three hours. The protocol for evaluating the therapeutic effect of FDP was designed in the following manner. […] Both groups received an additional 500 mg IV bolus of FDP or glucose every 30 min for the duration of the oligemic phase. In five controls and six treated dogs the chest was opened at three hours and with the aid of a specially designed cutting tool that had been cooled in liquid nitrogen, frozen transmural sections from the left ventricle were taken for ATP, creatine phosphate (CP), FDP and lactic acid determinations. The remaining 14 animals (6 controls and 8 treated with FDP) were retransfused at three hours and allowed to recover.
The epicardium and endocardium from the frozen tissue were separated (while still frozen) and homogenized in 6% perchloric acid. The supernatant was used to determine ATP, CP and lactate. The ATP and creatine phosphate were assessed with the method described by Lamprecht (Lamprecht, W., and P. Stein. Methods of Enzymatic Analysis. Ed: H. V. Bergmeyer, New York, Academic Press, 1963, p. 610.) while lactate was measured by the method of Marback (Marback, E. P., and M. H. Weil. Rapid enzymatic measurement of blood lactate and pyruvate. Clin. Chem. 13: 314, 1967). Tissue content of FDP was assessed by the method of Bucher and Hohorst (Bucher, T., and H. J. Hohorst. Dihydroxyacetone phosphate, fructose 1-6 diphosphate and D-glyceraldehyde 3-phosphate. In. Methods of Enzymatic Analysis. Ed: Bermeyer, New York, Academic Press, 1963, pgs. 246-252.)

[3] = FDP distribution after intracardiac administration in rat; assay type: in vivo; conditions: 10 min after administration
Source text: as §1

rabbit ileum = experiment: force of contraction of isolated rabbit ileum; conditions: added to perfusate
Source text: as §1

[4] = test system: dogs in surgical anesthesia; experiment: anesthetic requirement to maintain surgical anesthesia in dogs; assay type: in vivo, dog; conditions: FDP n=104 vs controls n=103
[5] = test system: dogs with acute regional myocardial ischemia; experiment: acute regional myocardial ischemia in dogs (coronary artery occlusion); assay type: in vivo, dog; conditions: FIG. 3; ischemic and normally perfused myocardium
acute lethality in dogs = conditions: dog, in vivo; administered 500 mg/min in dogs; approximately
Source text: From an energetic point of view the advantage of using FDP as the initial substrate is that the net yield of the anaerobic metabolism of one mole of glucose is 2 ATP, while if one mole of FDP is metabolized in the same conditions it will produce 4 ATP because there is no phosphorylation of glucose and fructose-6-phosphate, reactions which require utilization of ATP. On the other hand, while doubling the quantity of ATP produced, lactate production remains the same as though one mole of glucose had been metabolized. It is obvious that in order to obtain results in the direction of making usuable energy from FDP, it is necessary to administer a large quantity. (The LD50 of FDP when administered 500 mg/min in dogs is approximately 5.8-6 g/kg.)

[6] = plasma lactic acid after intravenous FDP in dogs; assay type: in vivo, dog
Source text: as §1

[7] = test system: experimental animals and man; experiment: antishock activity in experimental animals and in man; conditions: in vivo
[8] = tissue ATP, lactate, FDP and trioses after IV FDP; assay type: in vivo; conditions: IV administration
Source text: as §1

[9] = 5 g of FDP IV over 10 min, at one hour

O=C[C@H](O)[C@@H](O)[C@H](O)[C@H](O)CO [glucose, reference compound]
ATP content in the erythrocytes (erythrocytes; equimolar, same conditions): failed to increase the ATP content
survival [1]: died
amplitude and frequency of heart beats, lactic acid, pH and potassium during recovery (heart preparation): no significant difference
ischemic EKG changes in control (glucose) animals ([2]; 55 min to 1 hour 15 minutes after onset of shock): All control animals demonstrated ischemic EKG changes
creatine phosphate (CP) in the endocardium, less than normal ([2]; at three hours): 88%
creatine phosphate (CP) in the epicardium, less than normal ([2]; at three hours): 64%
endocardial ATP content, fall ([2]; at three hours): 50%
endocardial/epicardial tissue lactate ratio ([2]; at three hours): 1.52±0.21
ST elevation ([2]; maximum at 2 hours, precordial leads): 0.55±0.17 mV
survival after retransfusion [2]: All 6 control animals that were retransfused died within 24 hours

O=C(COP(=O)(O)O)[C@@H](O)[C@H](O)[C@H](O)COP(=O)(O)O [FDP, fructose-1,6-diphosphate]
concentration of FDP in the liver versus plasma [3]: five
force of contraction (rabbit ileum): increases the force of contraction
ATP and 2-3 DPG in the erythrocytes (erythrocytes): substantial increase of ATP and 2-3 DPG in the erythrocytes
ATP and 2-3 DPG content in erythrocytes (erythrocytes; 5% FDP): large increase in their ATP and 2-3 DPG content
anesthetic required [4]: twice as much anesthetic
survival [1]: survived
ATP and CP content in the myocardium [5]: increase of ATP and CP in ischemic myocardium, but also in the normally perfused heart muscle
tissue lactic acid concentration [5]: The same phenomenon was observed for the tissue lactic acid concentration
LD50 (acute lethality in dogs): 5800 to 6000 mg/kg
outcome of irreversible experimental hemorrhagic shock ([2]; 3 hour duration at 35mm Hg AP): could be successfully treated with FDP
mortality ([2]; FDP by IV administration): zero
creatine phosphate (CP) depletion ([2]; FIG. 4, epicardium and endocardium, 35 mm. Hg. for 3 hours): prevents depletion of creatine phosphate (CP) in both epicardium and endocardium
ATP content in the epicardium ([2]; FIG. 4, hypotension of 35 mm. Hg. for 3 hours, FDP vs controls): no significant difference in ATP content
myocardial contractility ([2]; Intravenous administration): improves the myocardial contractility
arterial plasma lactic acid, course after 2 hours ([2]; after 2 hours of hemorrhage): the plasma lactate continued to rise
heart rate return towards control ([2]; after retransfusion): returned faster towards control
ATP myocardial content ([2]; at three hours): normal ATP myocardial content and no transmural gradient
CP in the epicardium (in words) ([2]; at three hours): no deficit in the epicardium
creatine phosphate (CP) in the endocardium, less than normal ([2]; at three hours): 18%
endocardial/epicardial tissue lactate ratio ([2]; at three hours): 2.26 ±0.26
ATP and CP content in the myocardium / endocardium ([2]; dog, in vivo): restores ATP and CP content in the myocardium
ST elevation (in words) ([2]; dog, in vivo): only minimal elevation was observed in two animals
activity of glycolysis in the endocardium ([2]; dog, in vivo): restores the depressed activity of glycolysis in the endocardium
heart rate ([2]; dog, in vivo): < 200 beats/min
plasma lactate and myocardial tissue lactate ([2]; dog, in vivo): increased plasma lactate and myocardial tissue lactate
ATP and CP content in the myocardium / endocardium ([2]; dog, in vivo, listed as Fructose diphosphate): increased significantly the ATP and CP in the endocardium
plasma lactate ([2]; measured at 2 hrs 45 min after the onset of hypotension): 124±16 mg %
arterial pH ([2]; not exceptional in the group treated with FDP): ≤ 6.8
animals with spontaneous reversal of blood flow (from the bottle to the animal) ([2]; oligemic phase): only two of them reversed their flow
electrocardiographic (EKG) ischemic changes ([2]; oligemic phase): In both animals after FDP was given the ischemic changes disappeared; also recorded: prevents the EKG ischemic changes
electrocardiographic (EKG) ischemic changes ([2]; oligemic phase, listed as Fructose diphosphate): prevented electrocardiographic ischemic changes
survival after retransfusion [2]: All 8 dogs treated with FDP survived
renal and bowel function, neurological deficit ([2]; surviving dogs): normal renal and bowel function and no neurological deficit was noted
amount of blood uptake ([2]; two FDP animals with reversed flow): 24 % of the shed blood and 17 % of the shed blood
plasma lactic acid [6, 9]: 16.45±2.16 mg %
plasma lactic acid increase [6, 9]: 21/2
plasma lactic acid ([6]; before FDP (baseline)): 6.13±1.7 mg %
antishock activity [7]: profound antishock activity in experimental animals and in man
ATP, lactate, and FDP in tissues [8]: increase of ATP, lactate, and FDP in all tissues that we have studied
trioses in the Embden-Meyerhof pathway [8]: increases in the trioses
